Assay: gradient 5% acetonitrile 3 min, to 50% in 2 min, to 85% in 15 min, held 3 min, 100 µL/min
Details: column: Zorbax Extend-C18 2.1 x 50 mm; eluents: water / acetonitrile, 0.1% formic acid
How it was run: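 Each retention time is based on an adduct peak selected computationally and verified by manual inspection. Measurements used HPLC–quadrupole time-of-flight mass spectrometry in positive and negative ionization mode on mixtures of ~100 pure standards. Chromatography ran on a Zorbax Extend-C18 column (2.1 × 50 mm, 1.8 μm) at 100 μL/min with water and acetonitrile, each containing 0.1% formic acid, and dead and dwell volumes of 40 μL and 900 μL.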

RP-LC retention time	Structure (SMILES)
1010 s	COc1ccc(Cl)cc1NC(=O)NCCC1CCN(S(=O)(=O)c2ccccc2)CC1
814 s	O=C(CC1CCCC1)NCCn1c(=O)n(Cc2ccc(F)cc2)c2cccnc21
669 s	CN1CCCn2nc(C3CCN(C(=O)Nc4ccc(F)cc4)CC3)cc2C1=O
559 s	Cc1nc(-c2ccccc2)cc2nn(CC(=O)NCc3ccc(F)cc3)c(=O)n12
1010 s	Cn1nc(-c2nc(-c3ccccc3F)no2)c2c1CCN(C(=O)C1(c3ccccc3)CC1)C2
1010 s	CN1c2cc(C(=O)Nc3ccc(OC(F)(F)F)cc3)ccc2C(=O)N2CCCCC21 (centres undefined)
600 s	CC1=C(c2ccc(C)cc2)S(=O)(=O)N=C1N1CCCN(C(=O)C2CCCCC2)CC1
937 s	CC(NC(=O)CN1c2ccc(F)cc2-c2ccccc2S1(=O)=O)c1ccccc1 (centres undefined)
858 s	COc1ccccc1CNC(=O)c1nnc(-c2ccc(S(=O)(=O)N3CCOCC3)cc2)o1
594 s	O=C(NCC1CCCO1)c1ccc2ncnc(N3CCCCC3)c2c1 (centres undefined)
615 s	CCN1CCCC1CNC(=O)C(C)n1c2ccccc2c2cnn(C)c(=O)c21 (centres undefined)
675 s	CC(C)n1cnc2cc(CNC(=O)c3cccc(C(F)(F)F)c3)ccc21
801 s	COc1cc(NC(=O)NC2CCN(c3nc4ccccc4n(C)c3=O)CC2)cc(OC)c1
1080 s	O=C(Nc1cc(C(F)(F)F)ccc1Cl)c1ccc(S(=O)(=O)N2CCCCC2)cc1
760 s	Cc1ccccc1NC(=O)C1CCN(S(=O)(=O)c2cc(C(=O)N3CCCC3)cs2)CC1
686 s	COc1ccc(OC)c(CNC(=O)c2nc(N3CCOCC3)c3ccccc3n2)c1
598 s	O=C(NCc1ccc(F)cc1Cl)c1ccc2c(c1)ncn2CCN1CCCC1

RP-LC retention time	Structure (SMILES)
598 s	COc1cccc(NC(=O)c2cn3c(n2)CCCC3)c1
636 s	CC1CN2C=NC(N3CCN(C(=O)Nc4ccc(Cl)cc4F)CC3)=CC2=N1 (centres undefined)
561 s	Cn1ncc2c3ccccc3n(CC(=O)NCCCN3CCCCCC3)c2c1=O
930 s	CCCN1C(=O)COc2ccc(-c3noc(CNC(=O)c4ccc(C)cc4)n3)cc21
813 s	CN1c2cc(C(=O)NCc3ccc(F)cc3F)ccc2C(=O)N2CCCCC21 (centres undefined)
850 s	CC(C)Cn1ccc2c(cc(C(=O)NCc3cc(F)cc(F)c3)n2C)c1=O
887 s	Cc1cc2c(c(=O)n(-c3ccc(F)cc3)c(=O)n2CC(=O)Nc2cccc(Cl)c2)n1C
907 s	CCn1c(=O)c(N2CCCC(C(=O)NCCc3c[nH]c4ccc(OC)cc34)C2)nc2ccccc21 (centres undefined)
958 s	Cc1ccc(CNC(=O)c2cc3sccc3n2C)cc1
988 s	CCn1ccc2cc(S(=O)(=O)N3CCCC(C(=O)NCc4cc(OC)ccc4OC)C3)ccc21 (centres undefined)
905 s	COCc1cc2nn(CC(=O)Nc3cccc(C)c3)c(=O)n2c(-c2ccccc2)n1
621 s	CCCNC(=O)C1CC(=O)N(c2ccc3c(c2)CCN3C(C)=O)C1 (centres undefined)
703 s	COc1ccc(Cl)cc1NC(=O)C1c2cc(OC)c(OC)cc2C(=O)N(C)C1c1cccnc1 (centres undefined)
762 s	COC(=O)c1ncn2c1C(=O)N(Cc1ccccc1Cl)C(C)(C(=O)NCc1ccccc1)C2 (centres undefined)
1110 s	COc1ccc(Cl)cc1NC(=O)c1cc2c(=O)oc3ccccc3c2n1C
623 s	Cc1ccc2cc(CCC(=O)NCCCN3CCCC3=O)c(=O)[nH]c2c1

Second part, the compound before the results:

Structure (SMILES)	RP-LC retention time
Cc1cccc(N2CCN(Cc3nc(-c4ccc(N5CCSCC5)nc4)no3)CC2)c1	1000 s
CN1CCCCCCN(C(=O)c2cnccn2)[C@H]2CCC[C@H]2C1=O	649 s
CCOc1cccc(C2CC(c3ccc4c(c3)OCO4)=NC3(CCN(C(C)C)CC3)N2)c1O (centres undefined)	600 s
Cc1ccccc1NC(=O)Cn1nc(C(=O)N2CCOCC2)c2ccccc21	735 s
CCOc1ccc(-n2cc(C(=O)O)nn2)cc1	686 s
Cc1noc(C)c1S(=O)(=O)N1CCC(n2c(C)cnc2-c2ccncc2)C1 (centres undefined)	616 s
CCc1nc(-c2csc(S(=O)(=O)N3CCC(C(=O)NC4CCCCCCC4)CC3)c2)no1	1070 s
COc1cccc(-c2noc(N3CCCCC3)n2)c1	1070 s
Cc1noc([C@@H]2CN(C(=O)c3ccoc3C)C[C@H]2CO)n1	610 s
CCOc1cc(CNc2ccc3[nH]c(=O)[nH]c3c2)cc(Br)c1OC	677 s
COC(=O)c1ccc(C(=O)Nc2nnc(Cc3ccc(C)cc3)o2)cc1	768 s
COc1ccc(C(=O)Nc2cccn3nc(C)nc23)cc1	719 s
CCc1nc(-c2ccc3c(c2)CCN3C(=O)c2ccco2)no1	914 s
COC(=O)c1c(C)c(C(=O)C(C)N(Cc2ccc(F)cc2)C(=O)C(C)C)c(C)n1C (centres undefined)	990 s
O=C(O)c1ccccc1C(=O)NCC1COc2ccccc2O1 (centres undefined)	708 s
CCN(C(=O)c1cccs1)c1nc(-c2ccc(C)cc2)cs1	1280 s
CCOC(=O)N1CCN(C(=O)CCNc2c(-c3cccc(F)c3)nc3cnccn23)CC1	689 s
O=C(Nc1nnc(SCc2nnc(-c3ccccc3)o2)s1)c1ccc(Br)o1	870 s
O=S1(=O)N=CN(c2ccc(F)cc2)c2ncccc21	738 s

Structure (SMILES)	RP-LC retention time
CCOC(=O)CC1(NC(=O)N2CCC(c3nc4ccncc4n3C)C2)CCCCC1 (centres undefined)	553 s
COc1ccc(N2CCN(C(=O)C3c4ccccc4CCN3C(=O)C3CC3)CC2)cc1 (centres undefined)	811 s
COC(=O)c1ccc(NC(=O)CSc2nnc(C)c3cnn(-c4ccccc4)c23)cc1	705 s
Cc1nc2cc(-c3noc(-c4sc(C)nc4C)n3)ccc2o1	951 s
CCOc1ccc(NC(=O)C2CCCN2S(=O)(=O)c2ccc(OCC)cc2)cc1 (centres undefined)	967 s
Cc1ccccc1NC(=O)N1CCC(c2nc(C(=O)N3CCCC3)c(C)o2)CC1	732 s
O=C(Nc1cccnc1)c1ccc(CNS(=O)(=O)c2cccc(C(F)(F)F)c2)cc1	635 s
Cc1ccc2nc(NC3=NCN(CCO)CN3)nc(C)c2c1	593 s
COc1ccccc1-c1noc(Cn2ncn3nc(-c4ccc(C)cc4C)cc3c2=O)n1	1130 s
CC(C)n1c(CCNC(=O)c2ccccc2F)nc2cccnc21	652 s
O=C(Nc1cccc(Cl)c1)C(=O)c1c[nH]c2ccccc12	1040 s
COc1ccccc1N1CCN(C(=O)C2CCN(c3cnc4nccnc4c3)CC2)CC1	673 s
CN(C)CCCNc1oc(-c2ccc(F)cc2)nc1S(=O)(=O)c1ccccc1	678 s
O=C(Cn1nnc2ccccc2c1=O)N1CCN(c2ncccn2)CC1	629 s
CC(C)NC(C)Cc1ccc(I)cc1 (centres undefined)	746 s
Cc1nc(-n2cccc2)sc1C(=O)NCCn1nc(-c2ccco2)ccc1=O	710 s
COC(=O)c1c(C)c(C(=O)C(C)N(CC(C)C)C(=O)c2ccc(F)cc2)c(C)n1C (centres undefined)	1020 s
Cc1cccc(Nc2nc(-c3ccc(C(C)C)cc3)cs2)n1	1130 s
CC1CCN(c2nc(NCCN3CCOCC3)nc(N3CC4CC(C3)c3cccc(=O)n3C4)n2)CC1 (centres undefined)	555 s

Structure (SMILES)	RP-LC retention time
COC[C@@H]1CN(C(=O)c2ccc(C#N)cc2)C[C@H]1C(N)=O	571 s
Cn1cc(S(=O)(=O)N2CCOCC2)cc1C(=O)Nc1ccccc1	801 s
O=S(=O)(NCc1nnnn1C1CCCCC1)c1cccs1	740 s
CC(=O)N1CCN(Cc2ccc([C@H](C)Nc3nccc(N4C(=O)OC[C@@H]4C(C)C)n3)cc2)CC1	642 s
COCCNc1nc(-c2ccc(C(C)(C)C)cc2)nc2ccccc12	790 s
O=C(O)c1ccc(S(=O)(=O)NCc2ccccn2)cc1	543 s
CN1C(=O)N(C)C2(CCN(C(=O)Cc3ccc(Cl)cc3)CC2)C1=O	686 s
Nc1nc(N)c2cc(Sc3cccc(C(F)(F)F)c3)ccc2n1	686 s
Cc1cc(-c2nnc(-c3ccccc3)o2)c(C)n1CC(=O)NCc1cccs1	900 s
COc1ccc2[nH]c(I)c(CCNC(C)=O)c2c1	760 s
O=C(c1nc(C2CC2)nc2c1OCCO2)N1CCCC1c1cccnc1 (centres undefined)	642 s
O=C(c1cc(-c2cccnc2)n[nH]1)N1CCCC(C(=O)N2CCN(C(=O)c3ccco3)CC2)C1 (centres undefined)	556 s
O=S(=O)(c1ccc(Cl)cc1)N1CCC(c2nc(-c3cccnc3)no2)CC1	961 s
CSc1ccc(-c2nc3ccccn3c2Nc2ccc3c(c2)OCCO3)cc1	712 s
CCc1ccc(N2CC(c3noc(-c4ccc(-c5ccccc5)cc4)n3)CC2=O)cc1 (centres undefined)	1340 s
Cc1nc(C(=O)Nc2ccc(Cl)cc2C)c(C)o1	1030 s
O=C(Nc1ccc(Oc2ccccc2)cc1)c1cccc([N+](=O)[O-])c1C(=O)O	788 s
CC(C)CN1CCn2cc(C(=O)N3CCN(c4ccccc4)CC3)nc2C1	605 s
